# How the values were obtained:
# Test in all cases: relative viability (nuclei count vs DMSO), 5 days (fraction); higher = more cells survive
# [1] = test system: LCLC-103H
# Procedure, shortened: (§1)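 Lung cancer cell lines in 1536-well plates got either a single drug or a fixed anchor-drug dose together with five library-drug doses (not always all listed) in √10 steps, by pin tool, on the day after seeding. Nuclei were counted after 5 days, and relative viability is the treated-to-vehicle ratio of nuclei counts. Values are medians of duplicate plates.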
# [2] = test system: HCC-827
# Procedure, shortened: as §1
# [3] = test system: SK-LU-1
# Procedure, shortened: as §1
# [4] = test system: HCC-44
# Procedure, shortened: as §1
# [5] = test system: NCI-H2087
# Procedure, shortened: as §1
# [6] = test system: NCI-H1395
# Procedure, shortened: as §1
# [7] = test system: LXF-289
# Procedure, shortened: as §1
# [8] = test system: NCI-H1944
# Procedure, shortened: as §1
# [9] = test system: NCI-H322M
# Procedure, shortened: as §1
# [10] = test system: NCI-H647
# Procedure, shortened: as §1
# [11] = test system: CAL-12T
# Procedure, shortened: as §1
# [12] = test system: NCI-H2228
# Procedure, shortened: as §1
# [13] = test system: BEN
# Procedure, shortened: as §1
# [14] = test system: NCI-H1793
# Procedure, shortened: as §1
# [15] = test system: NCI-H1437
# Procedure, shortened: as §1
# [16] = test system: NCI-H2405
# Procedure, shortened: as §1
# [17] = test system: NCI-H3122
# Procedure, shortened: as §1
# [18] = test system: 201T
# Procedure, shortened: as §1
# [19] = test system: NCI-H727
# Procedure, shortened: as §1
# [20] = test system: RERF-LC-KJ
# Procedure, shortened: as §1
# [21] = test system: HOP-62
# Procedure, shortened: as §1
# [22] = test system: LCLC-97TM1
# Procedure, shortened: as §1
structure (smiles),measurement,setting,value
O=C(O)c1ccc(-c2c[nH]c3ncc(-c4ccccc4)cc23)cc1C1CCCC1 + Cc1nc(NC(=O)N2CCC[C@H]2C(N)=O)sc1-c1ccnc(C(C)(C)C(F)(F)F)c1 [Alpelisib] (partner 2 µM),relative viability,[1]; first compound 0.04 µM,1.01
same,relative viability,[1]; first compound 0.1265 µM,1.02
same,relative viability,[1]; first compound 0.4 µM,1.08
same,relative viability,[1]; first compound 1.265 µM,0.984
same,relative viability,[2]; first compound 0.04 µM,0.847
same,relative viability,[2]; first compound 0.1265 µM,0.988
same,relative viability,[2]; first compound 0.4 µM,0.89
same,relative viability,[2]; first compound 1.265 µM,0.747
same,relative viability,[3]; first compound 0.04 µM,0.901
same,relative viability,[3]; first compound 0.1265 µM,1.06
same,relative viability,[3]; first compound 0.4 µM,0.817
same,relative viability,[3]; first compound 1.265 µM,0.548
same,relative viability,[4]; first compound 0.04 µM,0.889
same,relative viability,[4]; first compound 0.1265 µM,0.813
same,relative viability,[4]; first compound 0.4 µM,0.848
same,relative viability,[4]; first compound 1.265 µM,0.477
same,relative viability,[5]; first compound 0.04 µM,1.01
same,relative viability,[5]; first compound 0.1265 µM,1.06
same,relative viability,[5]; first compound 0.4 µM,1.08
same,relative viability,[5]; first compound 1.265 µM,0.844
same,relative viability,[6]; first compound 0.04 µM,1.35
same,relative viability,[6]; first compound 0.1265 µM,1.01
same,relative viability,[6]; first compound 0.4 µM,1.1
same,relative viability,[6]; first compound 1.265 µM,0.769
same,relative viability,[7]; first compound 0.04 µM,0.979
same,relative viability,[7]; first compound 0.1265 µM,1.05
same,relative viability,[7]; first compound 0.4 µM,0.756
same,relative viability,[7]; first compound 1.265 µM,0.286
same,relative viability,[8]; first compound 0.04 µM,0.871
same,relative viability,[8]; first compound 0.1265 µM,0.94
same,relative viability,[8]; first compound 0.4 µM,0.833
same,relative viability,[8]; first compound 1.265 µM,0.745
same,relative viability,[9]; first compound 0.04 µM,0.979
same,relative viability,[9]; first compound 0.1265 µM,1
same,relative viability,[9]; first compound 0.4 µM,0.834
same,relative viability,[9]; first compound 1.265 µM,0.703
same,relative viability,[10]; first compound 0.04 µM,1.14
same,relative viability,[10]; first compound 0.1265 µM,1.24
same,relative viability,[10]; first compound 0.4 µM,1.02
same,relative viability,[10]; first compound 1.265 µM,0.766
same,relative viability,[11]; first compound 0.04 µM,1.17
same,relative viability,[11]; first compound 0.1265 µM,1.45
same,relative viability,[11]; first compound 0.4 µM,1.2
same,relative viability,[11]; first compound 1.265 µM,1.11
same,relative viability,[12]; first compound 0.04 µM,0.755
same,relative viability,[12]; first compound 0.1265 µM,0.787
same,relative viability,[12]; first compound 0.4 µM,0.552
same,relative viability,[12]; first compound 1.265 µM,0.468
same,relative viability,[13]; first compound 0.04 µM,1.28
same,relative viability,[13]; first compound 0.1265 µM,1.07
same,relative viability,[13]; first compound 0.4 µM,1.01
same,relative viability,[13]; first compound 1.265 µM,0.913
same,relative viability,[14]; first compound 0.04 µM,0.622
same,relative viability,[14]; first compound 0.1265 µM,0.706
same,relative viability,[14]; first compound 0.4 µM,0.805
same,relative viability,[14]; first compound 1.265 µM,0.754
same,relative viability,[15]; first compound 0.04 µM,0.998
same,relative viability,[15]; first compound 0.1265 µM,0.951
same,relative viability,[15]; first compound 0.4 µM,0.914
same,relative viability,[15]; first compound 1.265 µM,0.882
same,relative viability,[16]; first compound 0.04 µM,0.925
same,relative viability,[16]; first compound 0.1265 µM,0.746
same,relative viability,[16]; first compound 0.4 µM,0.796
same,relative viability,[16]; first compound 1.265 µM,0.591
same,relative viability,[17]; first compound 0.04 µM,0.724
same,relative viability,[17]; first compound 0.1265 µM,0.825
same,relative viability,[17]; first compound 0.4 µM,0.752
same,relative viability,[17]; first compound 1.265 µM,0.617
same,relative viability,[18]; first compound 0.04 µM,1.01
same,relative viability,[18]; first compound 0.1265 µM,1
same,relative viability,[18]; first compound 0.4 µM,0.993
same,relative viability,[18]; first compound 1.265 µM,0.935
same,relative viability,[19]; first compound 0.04 µM,0.545
same,relative viability,[19]; first compound 0.1265 µM,0.629
same,relative viability,[19]; first compound 0.4 µM,0.7
same,relative viability,[19]; first compound 1.265 µM,0.49
same,relative viability,[20]; first compound 0.04 µM,0.838
same,relative viability,[20]; first compound 0.1265 µM,0.762
same,relative viability,[20]; first compound 0.4 µM,0.869
same,relative viability,[20]; first compound 1.265 µM,0.82
same,relative viability,[21]; first compound 0.04 µM,0.709
same,relative viability,[21]; first compound 0.1265 µM,1.02
same,relative viability,[21]; first compound 0.4 µM,0.942
same,relative viability,[21]; first compound 1.265 µM,0.922
same,relative viability,[22]; first compound 0.04 µM,0.278
same,relative viability,[22]; first compound 0.1265 µM,0.313
same,relative viability,[22]; first compound 0.4 µM,0.239
same,relative viability,[22]; first compound 1.265 µM,0.264
C=C1C(=O)O[C@@H](CCCCCCCC)[C@@H]1C(=O)O [C-75] + Cc1nc(NC(=O)N2CCC[C@H]2C(N)=O)sc1-c1ccnc(C(C)(C)C(F)(F)F)c1 [Alpelisib] (partner 2 µM),relative viability,[1]; first compound 0.08 µM,0.986
same,relative viability,[1]; first compound 0.253 µM,0.94
same,relative viability,[1]; first compound 0.8 µM,1.01
same,relative viability,[1]; first compound 2.53 µM,0.89
same,relative viability,[1]; first compound 8 µM,0.908
same,relative viability,[2]; first compound 0.08 µM,0.936
same,relative viability,[2]; first compound 0.253 µM,0.97
same,relative viability,[2]; first compound 0.8 µM,0.953
same,relative viability,[2]; first compound 2.53 µM,1.01
same,relative viability,[2]; first compound 8 µM,0.987
same,relative viability,[3]; first compound 0.08 µM,1.04
same,relative viability,[3]; first compound 0.253 µM,1.23
same,relative viability,[3]; first compound 0.8 µM,0.909
same,relative viability,[3]; first compound 2.53 µM,1.02
same,relative viability,[3]; first compound 8 µM,0.552
same,relative viability,[4]; first compound 0.08 µM,0.742
same,relative viability,[4]; first compound 0.253 µM,0.674
same,relative viability,[4]; first compound 0.8 µM,0.719
same,relative viability,[4]; first compound 2.53 µM,0.614
same,relative viability,[4]; first compound 8 µM,0.719
same,relative viability,[5]; first compound 0.08 µM,1.07
same,relative viability,[5]; first compound 0.253 µM,0.921
same,relative viability,[5]; first compound 0.8 µM,1.02
same,relative viability,[5]; first compound 2.53 µM,0.682
same,relative viability,[5]; first compound 8 µM,0.934
same,relative viability,[6]; first compound 0.08 µM,1.05
same,relative viability,[6]; first compound 0.253 µM,1.13
same,relative viability,[6]; first compound 0.8 µM,1.07
same,relative viability,[6]; first compound 2.53 µM,0.868
same,relative viability,[6]; first compound 8 µM,1.28
same,relative viability,[7]; first compound 0.08 µM,1.01
same,relative viability,[7]; first compound 0.253 µM,0.979
same,relative viability,[7]; first compound 0.8 µM,0.992
same,relative viability,[7]; first compound 2.53 µM,0.973
same,relative viability,[7]; first compound 8 µM,1.09
same,relative viability,[8]; first compound 0.08 µM,0.824
same,relative viability,[8]; first compound 0.253 µM,0.655
same,relative viability,[8]; first compound 0.8 µM,0.916
same,relative viability,[8]; first compound 8 µM,0.818
same,relative viability,[9]; first compound 0.08 µM,0.776
same,relative viability,[9]; first compound 0.253 µM,1.05
same,relative viability,[9]; first compound 0.8 µM,0.821
same,relative viability,[9]; first compound 2.53 µM,0.771
same,relative viability,[9]; first compound 8 µM,0.836
same,relative viability,[10]; first compound 0.08 µM,0.972
same,relative viability,[10]; first compound 0.253 µM,1.28
same,relative viability,[10]; first compound 2.53 µM,1
same,relative viability,[10]; first compound 8 µM,0.643
same,relative viability,[11]; first compound 0.08 µM,1.19
same,relative viability,[11]; first compound 0.253 µM,1.47
same,relative viability,[11]; first compound 0.8 µM,1.12
same,relative viability,[11]; first compound 8 µM,1.33
same,relative viability,[12]; first compound 0.08 µM,0.751
same,relative viability,[12]; first compound 0.253 µM,1.01
same,relative viability,[12]; first compound 0.8 µM,0.73
same,relative viability,[12]; first compound 2.53 µM,0.604
same,relative viability,[12]; first compound 8 µM,0.744
same,relative viability,[13]; first compound 0.08 µM,0.983
same,relative viability,[13]; first compound 0.253 µM,1.15
same,relative viability,[13]; first compound 0.8 µM,0.953
same,relative viability,[13]; first compound 2.53 µM,0.926
same,relative viability,[13]; first compound 8 µM,0.91
same,relative viability,[14]; first compound 0.08 µM,0.72
same,relative viability,[14]; first compound 0.253 µM,0.723
same,relative viability,[14]; first compound 0.8 µM,0.585
same,relative viability,[14]; first compound 2.53 µM,0.708
same,relative viability,[14]; first compound 8 µM,0.816
same,relative viability,[15]; first compound 0.08 µM,0.942
same,relative viability,[15]; first compound 0.253 µM,0.969
same,relative viability,[15]; first compound 0.8 µM,1.01
same,relative viability,[15]; first compound 2.53 µM,0.961
same,relative viability,[15]; first compound 8 µM,1.07
same,relative viability,[16]; first compound 0.08 µM,0.833
same,relative viability,[16]; first compound 0.253 µM,0.481
same,relative viability,[16]; first compound 0.8 µM,0.703
same,relative viability,[16]; first compound 2.53 µM,0.884
same,relative viability,[16]; first compound 8 µM,0.816
same,relative viability,[17]; first compound 0.08 µM,0.767
same,relative viability,[17]; first compound 0.253 µM,0.922
same,relative viability,[17]; first compound 0.8 µM,0.765
same,relative viability,[17]; first compound 8 µM,0.801
same,relative viability,[18]; first compound 0.08 µM,0.981
same,relative viability,[18]; first compound 0.253 µM,1.08
same,relative viability,[18]; first compound 0.8 µM,1.02
same,relative viability,[18]; first compound 2.53 µM,0.975
same,relative viability,[18]; first compound 8 µM,1.07
same,relative viability,[19]; first compound 0.08 µM,0.467
same,relative viability,[19]; first compound 0.253 µM,0.76
same,relative viability,[19]; first compound 0.8 µM,0.616
same,relative viability,[19]; first compound 2.53 µM,0.579
same,relative viability,[19]; first compound 8 µM,0.688
same,relative viability,[20]; first compound 0.08 µM,0.834
same,relative viability,[20]; first compound 0.253 µM,0.875
same,relative viability,[20]; first compound 0.8 µM,0.817
same,relative viability,[20]; first compound 2.53 µM,0.765
same,relative viability,[20]; first compound 8 µM,0.979
same,relative viability,[21]; first compound 0.08 µM,0.9
same,relative viability,[21]; first compound 0.253 µM,1.11
same,relative viability,[21]; first compound 0.8 µM,0.95
same,relative viability,[21]; first compound 2.53 µM,0.926
same,relative viability,[21]; first compound 8 µM,0.765
same,relative viability,[22]; first compound 0.08 µM,0.286
same,relative viability,[22]; first compound 0.253 µM,0.376
same,relative viability,[22]; first compound 0.8 µM,0.225
same,relative viability,[22]; first compound 2.53 µM,0.251
same,relative viability,[22]; first compound 8 µM,0.271

# Reference: the supplement of paper PMC10307832
